From patent US6436395B1, “Rosellinia subiculata ATCC 74386 and fungus ATCC 74387 for producing sordarin compounds for fungi control” (Merck & Co., Inc., priority 1996, dated 2002)

Tests used:
Assay type in all cases: in vivo
[1] = tested on: Erysiphe graminis; assay: Action against Erysiphe graminis on wheat, protectant foliar spray (test a); conditions: wheat plants, 200 ppm spray 2 hours before infection (protectant), evaluated after 8 days
Experimental: 1. Action against Erysiphe graminis on wheat. a) After 1 week cultivation, wheat plants are sprayed to run off with a spray mixture (200 ppm active ingredient/20% acetone/0.25% Triton […]). After 2 hours, the treated plants are infected with ascospores shaken from inoculum plants. Fungal attack is evaluated after incubation for 8 days at 22° C. at 50% relative humidity to determine the protection given by the compound.

[2] = tested on: Erysiphe graminis; assay: Action against Erysiphe graminis on wheat, curative foliar spray (test b); conditions: wheat plants, 200 ppm spray 24 hours after infection (curative), evaluated after 8 days
Experimental: 1. Action against Erysiphe graminis on wheat. b) After 1 weeks cultivation, wheat plants are infected with ascospores shaken from inoculum plants. After 24 hours, the wheat plants are sprayed with a spray mixture (200 ppm active ingredient/ 20% acetone/0.25% Triton […]). Fungal attack is evaluated after incubation for 8 days at 22° C. at 50% relative humidity to determine the degree of curative activity provided by the compound.

[3] = tested on: Erysiphe graminis; assay: Action against Erysiphe graminis on wheat, curative soil drench, systemic (test c); conditions: wheat plants, 200 ppm soil drench 24 hours after infection (systemic), evaluated after 8 days
Experimental: 1. Action against Erysiphe graminis on wheat. c) After 1 weeks cultivation, wheat plants are infected with ascospores shaken from inoculum plants. After 24 hours, the soil in which the wheat plants are growing is drenched with the drench mixture (200 ppm active ingredient/20% acetone/0.25% Triton […]). Fungal attack is evaluated after incubation for 8 days at 22° C. at 50% relative humidity to determine the degree of curative activity provided by the compound.

[4] = tested on: Puccinia recondita; assay: Action against Puccinia recondita on wheat, protectant foliar spray (test a); conditions: wheat plants, 200 ppm spray 2 hours before infection (protectant), evaluated after 1 day + 7 days
Experimental: 2. Action against Puccinia recondita on wheat a) After 1 weeks cultivation, wheat plants sprayed to run off with a spray mixture (200 ppm active ingredient/20% acetone/0.25% Triton […]). After 2 hours, the treated plants are infected with a spore. Fungal attack is evaluated after incubation for 1 day at 95-100% relative humidity at 20° C. followed by 7 days at 25° C. at 50% relative humidity to determine the protection given by the compound.

[5] = tested on: Puccinia recondita; assay: Action against Puccinia recondita on wheat, curative foliar spray (test b); conditions: wheat plants, 200 ppm spray 24 hours after infection (curative), evaluated after 1 day + 7 days
Experimental: 2. Action against Puccinia recondita on wheat b) After 1 weeks cultivation, wheat plants are infected with a spore suspension After 24 hours, the infected plants are sprayed to run off with a spray mixture (200 ppm active ingredient/20% acetone/0.25% Triton […]. Fungal attack is evaluated after incubation for 1 day at 95-100% relative humidity at 20° C. followed by 7 days at 25° C. at 50% relative humidity to determine the degree of curative activity provided by the compound.

[6] = tested on: Puccinia recondita; assay: Action against Puccinia recondita on wheat, curative soil drench, systemic (test c); conditions: wheat plants, 200 ppm soil drench 24 hours after infection (systemic), evaluated after 1 day + 7 days
Experimental: 2. Action against Puccinia recondita on wheat c). After 1 weeks cultivation, wheat plants are infected with a spore suspension After 24 hours, the soil in which the wheat plants are growing was drenched with the drench mixture (200 ppm active ingredient/20% acetone/0.25% Triton […]). Fungal attack is evaluated after incubation for 1 day at 95-100% relative humidity at 20° C. followed by 7 days at 25° C. at 50% relative humidity to determine the degree of curative activity provided by the compound.

Measured: control of fungal infection

CO[C@H]1[C@@H](O)[C@H](O)[C@H](OC[C@@]23C[C@@H]4[C@H](C)CC[C@H]4[C@@]4(C=O)CC2C=C(C(C)C)[C@@]34C(=O)O)O[C@@H]1C [sordarin, Sordarin]
100%: all assays above
